The numbers were not newly measured in publication PMC7904233 (Journal of medicinal chemistry, 2020), which cites them from elsewhere.

The subject of the series is EBOV Zaire. The note with it: in vivo; cited from earlier work.

`CN(C)CCOc1ccc(/C(=C(/CCCl)c2ccccc2)c2ccccc2)cc1` [Compound 1, Toremifene]: the mouse survival was 50%.
In the case of `CCN(CC)CCOc1ccc(C(=C(Cl)c2ccccc2)c2ccccc2)cc1` [clomiphene], the mouse survival was 90%.
